The text below walks through data of patent publication US5457097A, “Androst-4-eno[4,5-b]pyrrole derivatives” (Farmitalia Carlo Erba S.r.l., priority 1992, dated 1995).

This experiment has as its target T1, human placental aromatase (Homo sapiens, UniProt P11511).
T1 construct: utilizes the human placental microsomal fraction as enzyme source; from tissue; host or cells: human placenta, microsomal fraction
T1 sequence (P11511 1-503): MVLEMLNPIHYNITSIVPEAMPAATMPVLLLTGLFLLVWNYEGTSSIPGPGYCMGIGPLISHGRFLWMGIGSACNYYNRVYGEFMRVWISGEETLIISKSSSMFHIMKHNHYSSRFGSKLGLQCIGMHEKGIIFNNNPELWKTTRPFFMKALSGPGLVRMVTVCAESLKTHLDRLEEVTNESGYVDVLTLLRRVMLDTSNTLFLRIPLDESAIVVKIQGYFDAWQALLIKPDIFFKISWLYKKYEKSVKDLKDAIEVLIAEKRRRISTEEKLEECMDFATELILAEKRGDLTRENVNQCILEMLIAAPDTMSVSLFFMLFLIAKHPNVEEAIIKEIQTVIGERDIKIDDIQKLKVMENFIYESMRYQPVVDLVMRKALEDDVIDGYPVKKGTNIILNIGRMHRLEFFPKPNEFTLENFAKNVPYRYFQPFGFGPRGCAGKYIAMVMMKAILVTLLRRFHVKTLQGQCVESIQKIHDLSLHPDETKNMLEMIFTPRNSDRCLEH
Nature of the experiment: in vitro aromatase inhibition test (Thompson and Siiteri), 3H2O release from [1β-3H]androstenedione. It is filed as biochemical. Conditions: human placental microsomal fraction; [1β-3H]androstenedione 50 nM, NADPH, 15 min incubation at 37° C.; read-out: concentration producing 50% inhibition of human placental aromatase (IC50). As for the experimental part: The concentration of each compound required to reduce control aromatase activity by 50% (IC50) was determined by plotting % inhibition versus log of inhibitor concentration.

Turning to `C[C@]12C=CC(=O)c3[nH]cc(c31)C[C@@H]1[C@@H]2CC[C@]2(C)C(=O)CC[C@@H]12` [3,17-dioxo-1'H-androsta-1,4-dieno[4,5-b]pyrrole], the IC50 worked out at 0.12 µM.
